For orientation: IC50 means the point on the concentration scale where inhibition reaches its midpoint. Lower therefore signals inhibition by little substance.

The target of this experiment is T1, Tyrosine-protein phosphatase non-receptor type 11 (Homo sapiens, UniProt Q06124).
T1 sequence (Q06124 whole entry): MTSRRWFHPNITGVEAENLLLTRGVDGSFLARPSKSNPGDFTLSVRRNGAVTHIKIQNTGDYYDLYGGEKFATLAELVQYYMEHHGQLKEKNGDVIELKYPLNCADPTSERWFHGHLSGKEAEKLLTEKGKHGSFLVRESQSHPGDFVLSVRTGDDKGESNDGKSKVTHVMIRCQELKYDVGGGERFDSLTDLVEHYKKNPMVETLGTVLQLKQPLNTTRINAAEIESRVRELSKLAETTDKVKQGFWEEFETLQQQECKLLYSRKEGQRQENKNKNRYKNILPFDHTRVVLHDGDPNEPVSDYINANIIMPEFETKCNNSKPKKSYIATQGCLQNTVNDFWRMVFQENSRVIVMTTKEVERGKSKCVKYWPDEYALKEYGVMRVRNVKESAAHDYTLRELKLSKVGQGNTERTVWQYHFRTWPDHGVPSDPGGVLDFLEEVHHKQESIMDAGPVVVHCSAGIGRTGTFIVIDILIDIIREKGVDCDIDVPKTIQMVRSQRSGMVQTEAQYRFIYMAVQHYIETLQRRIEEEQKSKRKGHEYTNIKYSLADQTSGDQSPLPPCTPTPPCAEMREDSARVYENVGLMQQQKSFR
Nature of the experiment: Assay for the inhibitory effect on the SHP2 enzyme. The procedure: A mixed liquor of 2× working SHP2 reagent (0.4 nM) and 0.5 μM SHP-2 activated peptide (BPS bioscience #79319-2) was prepared with 1× enzyme buffer. After the above-mixed liquor was incubated at 25° C. for 60 minutes, 5 μL of activated SHP2 kinase solution was transferred with a pipettor to the compound wells and the Max control wells (Corning, #4514) of the plate. Then 5 μL of 1× kinase buffer was transferred to the Min control wells. The plate was centrifuged at 1000 rpm for 30 seconds, sealed, and incubated in a 25° C. constant-temperature incubator for 30 minutes. A substrate solution of DiFMUP (#D6567, Invitrogen™) was prepared with 1× kinase buffer, and its concentration should be 2 times as the final concentration of the assay (DiFMUP final concentration: 10 μM). 5 μL of the prepared substrate solution was transferred with an electric pipettor into each well of the ELISA plate to start the reaction. The plate was centrifuged at 1000 rpm for 30 seconds, sealed, and incubated in a 25° C. constant-temperature incubator for 60 minutes. Read the plate at the excitation/emission wavelength of 358/455 nm after the ELISA plate was placed on the Spark machine.

`COC(=O)c1nc(Sc2cccc(-c3ccn(C)n3)c2Cl)cnc1N1CCC2(CC1)Cc1ccccc1[C@H]2N` [US20240376119, Example 19]: the half-inhibitory concentration (IC50) result was “in the range around 20 nM”.

For the origin of these results see BindingDB's records for patent US20240376119 (Cspc Zhongqi Pharmaceutical Technology (Shijiazhuang), 2024).
